The values that follow come from the RepoRT retention time repository.

Each structure is given as a SMILES string.

The nature of the data set: Waters ACQUITY UPLC BEH C18, 100 × 2.1 mm, 1.7 µm, 40 °C, 0.3 to 0.4 mL/min, estimated dead time 0.63 min; A: water + 0.1% formic acid; B: methanol + 0.1% formic acid; gradient (min/%B) 0/0.5 0.1/0.5 10/80 10.1/99.5 12/99.5. Conditions: stereoisomer not certain.
Turning to `CC1OC(OCC2OC(Oc3cc4c(O)cc(O)cc4[o+]c3-c3ccc(O)c(O)c3)C(O)C(O)C2O)C(O)C(O)C1O` (stereo not given), the LC retention time was 2.94 min.
On to `O=C(C=Cc1ccc(O)c(O)c1)OC1C(O)CC(O)(C(=O)O)CC1O` (stereo not given), for which the LC retention time is 4.6 min.
As for `COc1cc(-c2cc(=O)c3c(O)cc(OC4OC(C(=O)O)C(O)C(O)C4OC4OC(C(=O)O)C(O)C(O)C4O)cc3o2)cc(OC)c1O` (stereo not given), the LC retention time was 3.96 min.
Take `CCCC(=O)OC(CC(=O)[O-])C[N+](C)(C)C` (stereo not given): the LC retention time is 2.18 min.
Turning to `CC1CCC2C(C)C3C(CC4C5CC=C6CC(OC7OC(CO)C(O)C(O)C7OC7OC(C)C(O)C(O)C7O)CCC6(C)C5CCC43C)N2C1` (stereo not given), the LC retention time was 4.94 min.
With `CN1C2CCC1CC(OC(=O)C(CO)c1ccccc1)C2` (stereo not given), the LC retention time is 3.59 min.
`COC(=O)C1=COC(OC2OC(CO)C(O)C(O)C2O)C2C1CC(O)C2C` (stereo not given): the LC retention time was 3.36 min.
As to `COc1cc(-c2[o+]c3cc(O)cc(OC4OC(CO)C(O)C(O)C4O)c3cc2OC2OC(COC3OC(C)C(OC(=O)C=Cc4ccc(O)cc4)C(O)C3O)C(O)C(O)C2O)cc(O)c1O` (stereo not given), the LC retention time was 3.76 min.
Turning to `COc1cc(C=CC(=O)O)cc(OC)c1`, the LC retention time was 6.26 min.
With `COc1ccc(-c2cc(=O)c3c(OC)cc(OC)c(-c4cc(-c5cc(=O)c6c(OC)cc(OC)cc6o5)ccc4OC)c3o2)cc1`, the LC retention time is 7.39 min.
`CC(C)C(N)C(=O)NC(Cc1ccccc1)C(=O)O` (stereo not given): the LC retention time is 3.23 min.
For `CCCCc1ccc(C(=O)O)nc1`, the LC retention time is 2.79 min.
For `O=c1ccc2ccc(O)c(O)c2o1` the value was 3.65 min; for `CC(=O)OCC1OC(OC2C(O)COC(OC3C(O)C(C)(C)CC4C5=CCC6C7(C)CCC(OC8OC(C(=O)O)C(O)C(O)C8OC8OC(CO)C(O)C(O)C8OC8OC(CO)C(O)C(O)C8O)C(C)(CO)C7CCC6(C)C5(C)CCC43C)C2O)C(OC(C)=O)C(OC(C)=O)C1OC(C)=O` (stereo not given), 6.26 min; for `COc1cc(-c2[o+]c3cc(O)cc(OC4OC(CO)C(O)C(O)C4O)c3cc2OC2OC(CO)C(O)C(O)C2O)cc(OC)c1O` (stereo not given), 2.81 min.
With `CC(C)C(O)(C(=O)OCC1CCN2CCCC12)C(C)O` (stereo not given), the LC retention time is 3.05 min.
As for `CC(C)=CCc1c(O)cc(O)c(CC=C(C)C)c1CCc1ccc(O)c(O)c1`, the figure is 7.84 min; as for `C=CC1C(OC2OC(CO)C(O)C(O)C2O)OC(O)=C2C(=O)N3CCc4c([nH]c5ccccc45)C3=CC21` (stereo not given), 5.07 min; as for `C=CCC(=NOS(=O)(=O)O)SC1OC(CO)C(O)C(O)C1O` (stereo not given), 1.77 min.
With `O=C1CC(c2ccc(O)c(O)c2)Oc2cc(OC3OC(CO)C(O)C(O)C3O)cc(O)c21` (stereo not given), the LC retention time was 4.09 min.
On to `COc1cc(C=CC(=O)NC=Cc2ccc(O)cc2)ccc1O`, for which the LC retention time is 4.3 min.
For `COc1ccc(C2CC(=O)c3c(O)cc(O)cc3O2)cc1O` (stereo not given) the value was 6.04 min.
On to `O=C(C=Cc1ccc(O)c(O)c1)OC1CC(O)(C(=O)O)CC(OC(=O)C=Cc2ccc(O)c(O)c2)C1O` (stereo not given), for which the LC retention time is 4.6 min.
As for `Cc1nccc2c1[nH]c1ccccc12`, the figure is 3.7 min.
As for `CC=CS(=O)CC(NC(=O)CCC(N)C(=O)O)C(=O)O` (stereo not given), the figure is 1.79 min; as for `O=c1cc(-c2ccc(O)cc2)oc2cc(O)ccc12`, 7.38 min.
For the molecule `Oc1cc(O)c2c(c1)OC(c1cc(O)c(O)c(O)c1)C(O)C2` (stereo not given), the LC retention time was 2.49 min.
On to `CS(=O)CCCCCCCCN` (stereo not given), for which the LC retention time was 2.49 min.
With `O=c1c(OC2OC(COC3OCC(O)C(O)C3O)C(O)C(O)C2O)c(-c2ccc(O)c(O)c2)oc2cc(O)cc(O)c12` (stereo not given), the LC retention time is 3.7 min.
For `CC(=O)OCC1OC(Oc2ccc3c(=O)c(-c4ccc(O)cc4)coc3c2)C(O)C(O)C1O` (stereo not given) the value was 4.57 min; for `CC1CCC2(C(=O)OC3OC(COC4OC(CO)C(OC5OC(C)C(O)C(O)C5O)C(O)C4O)C(O)C(O)C3O)CCC3(C)C(=CCC4C5(C)CC(O)C(O)C(C)(CO)C5C(O)CC43C)C2C1C` (stereo not given), 4.88 min.
As for `O=C([O-])CC(=O)OCC1OC(OC2Cc3c(O)cc(O)cc3[O+]=C2c2ccc(O)cc2)C(O)C(O)C1O` (stereo not given), the LC retention time is 4.88 min.
For `CC(C)=CCc1cc(C=CC(=O)c2ccc(O)cc2O)ccc1O` the value was 8.61 min.
In the case of `CCC1CN2CCc3c([nH]c4cccc(OC)c34)C2CC1C(=COC)C(=O)OC` (stereo not given), the LC retention time was 5.54 min.
`CC(C)=CCCC(C)(O)C1CCC2(C)C1C(O)CC1C3(C)CCC(O)C(C)(C)C3C(OC3OC(CO)C(O)C(O)C3O)CC12C` (stereo not given): the LC retention time is 6.29 min.
As for `CC1OC(OC2C(c3c(O)cc(O)c4c(=O)cc(-c5ccc(O)cc5)oc34)OC(CO)C(O)C2O)C(O)C(O)C1O` (stereo not given), the LC retention time was 4.61 min.
As for `O=C(O)C1OC(Oc2c(-c3ccc(O)cc3)oc3cc(O)cc(O)c3c2=O)C(O)C(O)C1O` (stereo not given), the figure is 4.34 min; as for `CCC(C)C(N)C(=O)NC(C(=O)O)C(C)CC` (stereo not given), 3.05 min.
As for `NCCc1ccc(O)cc1`, the LC retention time was 1.83 min.
For `COC(=O)C1=C2Nc3ccccc3C23CCN2CCC1C(C(C)OC)C23` (stereo not given) the value was 4.55 min.
Take `CC(C)CC(NC(=O)C(C)N)C(=O)O` (stereo not given): the LC retention time was 2.36 min.
As for `CCC(C)C(NC(=O)C(N)Cc1ccccc1)C(=O)O` (stereo not given), the LC retention time is 3.79 min.
As for `Nc1[nH]c(=O)[nH]c(=O)c1OC1OC(CO)C(O)C(O)C1OC1OC(CO)C(O)C1O` (stereo not given), the figure is 2.16 min; as for `O=C(CCc1ccc(O)c(O)c1)NCCCCNCCCNC(=O)CCc1ccc(O)c(O)c1`, 3.14 min.
Regarding `COc1cc2ccc(=O)oc2cc1OC1OC(CO)C(O)C(O)C1O` (stereo not given), the LC retention time is 3.11 min.
As for `CC(C)CC(NC(=O)Cc1c[nH]c2ccccc12)C(=O)O` (stereo not given), the figure is 6.2 min.
For `CCC(C)C(N)C(=O)NC(C(=O)O)C(C)C` (stereo not given) the value was 2.55 min; for `COc1ccc2c(c1)OC1c3ccc(O)cc3OCC21` (stereo not given), 5.92 min.
Turning to `O=C(O)CC(=O)NC(Cc1c[nH]c2ccccc12)C(=O)O` (stereo not given), the LC retention time is 4.35 min.
Regarding `CCCCCCCCC=CCCCCCCCC(=O)OCC(O)COP(=O)(O)OCCN` (stereo not given), the LC retention time is 10.2 min.
Consider `CC(N)C(=O)NC(Cc1ccccc1)C(=O)O` (stereo not given), for which the LC retention time was 2.84 min.
Take `O=C(OC1Cc2c(O)cc(O)cc2OC1c1cc(O)c(O)c(O)c1)c1cc(O)c(O)c(O)c1` (stereo not given): the LC retention time was 3.46 min.
For the molecule `C=CCS(=O)CC(NCC1(O)OCC(O)C(O)C1O)C(=O)O` (stereo not given), the LC retention time is 1.66 min.
In the case of `O=c1c(-c2ccc(O)c(O)c2)coc2cc(O)ccc12`, the LC retention time was 4.63 min.
`CC1OC(Oc2cc(O)c3c(=O)c(O)c(-c4ccc(O)cc4)oc3c2)C(O)C(O)C1O` (stereo not given): the LC retention time is 5.28 min.
`Nc1[nH]c(=O)[nH]c(=O)c1OC1OC(CO)C(O)C(O)C1O` (stereo not given): the LC retention time is 2.01 min.
As to `COc1cc(-c2[o+]c3cc(O)cc(OC4OC(CO)C(O)C(O)C4O)c3cc2OC2OC(CO)C(O)C(O)C2O)ccc1O` (stereo not given), the LC retention time is 2.79 min.
For the molecule `O=C(C=Cc1ccc(O)cc1)OC1C(OC2C(Oc3ccc(-c4cc(=O)c5c(O)cc(O)cc5o4)cc3)OC(C(=O)O)C(O)C2O)OC(C(=O)O)C(O)C1O` (stereo not given), the LC retention time was 4.77 min.
As for `Cc1cc2[nH]c(=O)c(=O)n(CC(O)C(O)C(O)CO)c2cc1C` (stereo not given), the LC retention time is 3.3 min.
With `COc1cc2c(c(OC)c1OC)-c1c(cc(OC)c(OC)c1OC)CC(C)(O)C(C)C2` (stereo not given), the LC retention time is 7.59 min.
For `CC1CCC2C(C)C3C(CC4C5CC=C6CC(O)CCC6(C)C5CCC43C)N2C1` (stereo not given) the value was 5.99 min; for `COCC12CN(C)C3C4C(OC)C1C3(C(OC)CC2O)C1CC2(O)C(OC)C(O)C4(OC(C)=O)C1C2OC(=O)c1ccccc1` (stereo not given), 5.61 min.
Consider `C=CC1C(OC2OC(CO)C(O)C(O)C2O)OC=C(C(=O)O)C1Cc1nccc2c1[nH]c1ccccc12` (stereo not given), for which the LC retention time was 3.72 min.
For `O=C(O)C1OC(Oc2c(-c3ccc(O)c(O)c3)oc3cc(O)cc(O)c3c2=O)C(O)C(O)C1O` (stereo not given), the LC retention time was 4.01 min.
For the molecule `CC(C)=CCc1cc(C2CC(=O)c3c(O)cc(O)c(CC=C(C)C)c3O2)cc(O)c1O` (stereo not given), the LC retention time is 9.09 min.
As for `CC(=O)OC1C(C)OC(OC2C(c3c(O)cc(O)c4c(=O)cc(-c5ccc(O)cc5)oc34)OC(CO)C(O)C2O)C(O)C1O` (stereo not given), the figure is 5.08 min; as for `CCN1CC2(C)CCC(O)C34C5CC6C(OC)CC(O)(C(CC23)C14)C5C6O` (stereo not given), 2.89 min.
For `COc1ccc(-c2cc(=O)c3c(O)cc(OC4OC(COC5OC(C)C(O)C(O)C5O)C(O)C(O)C4O)cc3o2)cc1` (stereo not given) the value was 5.19 min.
Turning to `COc1c(CC=C(C)C)c(O)cc2oc(-c3ccc(O)cc3O)cc12`, the LC retention time is 8.35 min.
For the molecule `CCN1CC2(CO)CCC(OC)C34C5CC6C(OC)CC(O)(C5C6OC)C(O)(C(OC)C23)C14` (stereo not given), the LC retention time is 3.67 min.
With `CC(CSCC(NC(=O)CCC(N)C(=O)O)C(=O)O)C(=O)O` (stereo not given), the LC retention time is 2.39 min.
With `CC(C)=CCCC(C)(OC1OC(COC2OCC(O)C(O)C2O)C(O)C(O)C1O)C1CCC2(C)C1C(O)CC1C3(C)CCC(O)C(C)(C)C3C(O)CC12C` (stereo not given), the LC retention time is 6.11 min.
On to `CC1OC(OC2C(Oc3cc(O)c4c(c3)OC(c3ccc(O)c(O)c3)CC4=O)OC(CO)C(O)C2O)C(O)C(O)C1O` (stereo not given), for which the LC retention time is 4.04 min.
Take `O=c1c(O)c(-c2ccc(OC3OC(CO)C(O)C(O)C3O)c(O)c2)oc2cc(O)cc(O)c12` (stereo not given): the LC retention time was 4.51 min.
As for `C=C1CC23CC4C5C6(C)CC(O)CC57C(C2C(O)C1C(O)C37)N4C6` (stereo not given), the figure is 3.07 min.
